Results as given in patent publication US20180153842A1, “AMINO ACID SUPPLEMENTATION FOR A HEALTHY MICROBIOTA ECOSYSTEM” (NESTEC S.A., priority 2003, published 2018).

Key:
Assay type in all cases: in vivo, Sprague-Dawley rats
Details in all cases: 5% DSS in drinking water for 9 days then 2% for 18 days, feces
[1] = test system: Lactobacilli; assay: fecal Lactobacilli count in rats
Protocol: (§1) The animal experiment was conducted as follows: Male Sprague-Dawley rats (n=32) aged 10 months were randomly distributed into 4 experimental groups (described below). During an 8 days acclimatization period, rats had free access to tap water and received a control diet or diets supplemented in amino acids as described below. After this adaptation period, Dextran Sulfate Sodium (DSS)-treated rats received 5% DSS (w/v) in their drinking water for the first 9 days of the experiment and 2% DSS for the following 18 days to induce a chronic colitis.
(§2) ii) Group “DSS”: rats were fed ad libitum with the control diet. They received DSS (free access) dissolved in their drinking water as previously described.
(§3) At the end of the experiment, fecal samples were collected from animals with a sterile spoon into sterile tubes, frozen (liquid nitrogen) in 10% glycerol and then stored at −80° C. until analysis. The fecal microbiota was analyzed quantitatively for Enterobacteria, Bacteroides, Enterococci, Lactobacilli and Bifidobacteria species according to standard methods. Bacteria were counted using selective or semi-selective media. The counts were expressed as log (base 10) cfu/g feces with a lower detection limit of 3.30 log cfu/g and 5.50 log cfu/g of feces for Bacteroides.
(§4) Data are expressed as mean±SEM. […]

[2] = test system: Enterobacteria; assay: fecal Enterobacteria count in rats
Protocol: as §1, §2, §3, §4

[3] = test system: Enterococci; assay: fecal Enterococci count in rats
Protocol: as §1, §2, §3, §4

[4] = test system: Bacteroides; assay: fecal Bacteroides count in rats
Protocol: as §1, §2, §3, §4

Lactobacilli counts compared to controls [1]: significantly decreased
Enterobacteria counts compared to controls [2]: significantly decreased
Enterococci counts compared to controls [3]: significantly decreased
Bacteroides counts compared to controls [4]: increased
Substance: Dextran Sulfate Sodium [DSS]
